Experimental data taken from patent US11896564B2, “Medical treatment for pathologic inflammation” (PHARMACYL AB, priority 2018, dated 2024).
Counter-ions that a name gives are not always drawn.

How the values were obtained:
[1] = test system: LPS-induced TNF-α production in RAW264.7 murine macrophage cells; experiment: Suppression of LPS-induced TNF-α production in RAW264.7 macrophages (ELISA); format: cell-based; settings: Mus musculus; 1 mM test substance; LPS 1 μg/ml; RAW264.7 cells
From the text: UC is an inflammatory disease characterized by the infiltration of inflammatory cells, such as macrophages, into the lesioned colon. Macrophages serve a critical role in the initiation and propagation of inflammatory responses by releasing proinflammatory mediators, such as TNF-α. Lipopolysaccharide (LPS) is a potent initiator of an inflammatory response. During LPS stimulation, NF-κB signaling is activated to regulate the transcription of numerous genes involved in immunity and inflammation to produce proinflammatory cytokines, such as TNF-α. Suppression of LPS-induced TNF-α production in RAW264.7 macrophages treated with AABZ was investigated by evaluation of the generation of TNF-α. The aim of this study was to evaluate the anti-inflammatory activity of AABZ.
The RAW264.7 macrophage line was maintained in DMEM supplemented with 5% FBS at 37° C. in a 5% […] air environment. The RAW264.7 cells were seeded in 96-well plates at a density of 1×10^5/ml and a volume of 200 μl/well. […] The supernatants were subsequently harvested at various time points and production of the proinflammatory cytokine TNF-α in the culture medium was determined using a commercially available enzyme-linked immunosorbent assay (ELISA) kit according to the manufacturer's protocol. […]

[2] = test system: DSS-induced acute colitis in Balb/c mice; experiment: Dextran sulfate sodium (DSS)-induced acute colitis, disease activity index; format: in vivo; settings: day 5
Experimental: The experiment was performed using 6-8-week-old female Balb/c mice after a one-week acclimatization period. The mice weighed 18-25 g, were purchased from Taconic (Denmark) and were maintained in a temperature and light-controlled facility with free access to standard rodent chow and water. Mice were randomized to the respective groups five days before start of treatment and were kept 5 to 6 animals per cage. […] The DSS intake was assessed daily.
SASP (from Sigma-Aldrich, Sweden) was first dissolved in 0.2 M sodium hydroxide (NaOH) at a concentration higher than the required final concentration. Phosphate buffered saline (PBS) was added to the desired concentration and the pH was adjusted to 7.5-8.0 with NaOH or hydrochloric acid. SASP remained completely dissolved at this pH. Cpd A hydrochloride was dissolved in PBS to the desired concentration.
All animal groups had free access to 5% DSS water solution for the entire test period. Treatments were administered from day 0 to day 5, either orally by gavage (SASP) or intraperitoneally (Cpd A), and in an administration volume of 5 ml/kg, twice daily with approximately an 8-hour interval. The control group (DSS only) received water (0.2 ml) orally twice daily. The parameters recorded in the experiment were stool consistency (0, normal; 2, loose stools; 4, watery diarrhoea), occurrence of blood in the stool (0, normal; 2, Hemoccult+; 4, gross bleeding), and body weight loss (0, none; 1, 1-5%; 2, 5-10%; 3, 10-20%; 4, >20%). Disease activity index (DAI) was calculated by summarizing the scores of these three parameters. Also the colon length and the colonic content of myeloperoxidase (MPO) were recorded. Data was statistically evaluated with analysis of variance (ANOVA). Least-squares means (LS means), and standard error (SE) of LS means were calculated.

CCN(CC)CCNC(=O)c1ccc(NC(C)=O)cc1 [4-Acetamido-N-[2-(diethylamino)ethyl]benzamide hydrochloride]
inhibition at 1000 µM [1]: 56%

O=C(O)c1cc(/N=N/c2ccc(S(=O)(=O)Nc3ccccn3)cc2)ccc1O [SASP, sulfasalazine]
Disease Activity Index LS means ± SE ([2]; SASP 20 mg/kg/day bid po): 6.4 ± 0.5 | Percent Reduction of Score (Disease Activity Index) vs control ([2]; SASP 20 mg/kg/day bid po): 8% | Percent Reduction of Score (Disease Activity Index) vs control ([2]; SASP 40 mg/kg/day bid po): 36%

CCN(CC)CCNC(=O)c1ccc(NC(C)=O)c(Cl)c1 [Cpd A, 4-Acetamido-3-chloro-N-[2-(diethylamino)ethyl]benzamide hydrochloride]
Percent Reduction of Score (Disease Activity Index) vs control ([2]; Cpd A 50 mg/kg/day bid ip): 7%
